Patent publication US20240399032A1, “HYDROGEL FOR PROMOTING GROWTH OF MESENCHYMAL STEM CELLS, AND PREPARATION METHOD AND APPLICATION METHOD THEREOF” (The Fifth People's Hospital of Hainan Province, priority 2023, published 2024)

Experiments:
skin scratch model rat = test: Treatment of wound of skin scratch model DM rat; type: in vivo; details: applied daily on wound of left hindfoot; for time until wound healed: mecobalamin H1 group (wound without administration healed too), epalrestat M1 group (without administration healed on eighteenth day)
Description: 30 specific pathogen free (SPF) Sprague Dawley (SD) male rats aged 6-8 weeks old (weight 190 g or so) are used to construct as the DM rat model. Specifically, the STZ solution is prepared and used, and the prepared STZ solution is used within 10 minutes. The STZ solution is injected into left lower abdomens of the rats with a single dose of 55 milligrams per kilogram (mg/kg). After a week of the intraperitoneal injection of the STZ solution, the rats are in abrosia but can have water for 12 hours (h), thereafter blood glucose of the rats is detected, and the rats with blood glucose value above 12.6 […] are selected as the DM rat model. The 30 SPF SD male rats are all constructed as the DM rat model, 12 rats died before diabetic foot administration, and 2 rats died during the administration but not appearing effectiveness. Six DM model rats are selected for normal feeding for four weeks. After anesthesia, round skin wounds with each diameter of 5 mm are created on dorsal sides of hindfoots of the DM model rats to generate foot gangrene, as shown in FIG. 2. And then, the DM model rats continue to be fed regularly and the skin wounds of the DM model rats are observed every day. Therapeutic drug of mecobalamin (H1 group) is applied daily on the wound disposed on the left hindfoot of the skin scratch model rat, and then the wound of the model rat is observed. […] Therapeutic drug of epalrestat (M1 group) is applied daily on the wound disposed on the left hindfoot of the skin scratch model rat, and then the wound of the model rat is observed. After 13 days of continuous administration, the wound healed, and at the same time, the wound of the skin scratch model rat without administration healed on the eighteenth day. […] The hydrogels (T1 group, T2 group, T3 group, T4 group) are applied daily on the wounds disposed on the left hindfoots of four skin scratch model rats, and then the wounds of the 4 model rats are observed. […]

[1] = test system: Staphylococcus aureus model rat; test: Treatment of wound (foot gangrene) of Staphylococcus aureus model DM rat; type: in vivo; details: applied daily on wound of left hindfoot
Description: 30 specific pathogen free (SPF) Sprague Dawley (SD) male rats aged 6-8 weeks old (weight 190 g or so) are used to construct as the DM rat model. Specifically, the STZ solution is prepared and used, and the prepared STZ solution is used within 10 minutes. The STZ solution is injected into left lower abdomens of the rats with a single dose of 55 milligrams per kilogram (mg/kg). After a week of the intraperitoneal injection of the STZ solution, the rats are in abrosia but can have water for 12 hours (h), thereafter blood glucose of the rats is detected, and the rats with blood glucose value above 12.6 […] are selected as the DM rat model. The 30 SPF SD male rats are all constructed as the DM rat model, 12 rats died before diabetic foot administration, and 2 rats died during the administration but not appearing effectiveness. Six DM model rats are selected. At the third week, dorsal sides of hindfoots of the DM model rats are subcutaneously injected 10 μL of suspension containing more than […] Staphylococcus aureus, thereby obtaining a DM animal model with foot infection (also referred to as extremity infection). It can be seen from FIG. 1, on the sixth day, spontaneous foot gangrene occurs, and on the seventh day and eighth day, the foot gangrene is gradually obvious. […]

Compound	time until wound healed (skin scratch model rat) [days]	effect on wound healing (skin scratch model rat; H1, M1, T1-T4 groups)	time of administration until wound / foot gangrene healed ([1]; mecobalamin H4 group (untreated wound healed as well), hydrogel T10 group (control healed after 7 days)) [days]	healing of treated wound compared with untreated wound / control group ([1]; mecobalamin H4 group, hydrogel T10 group, same area of foot gangrene)
CC(/C=C1\SC(=S)N(CC(=O)O)C1=O)=C\c1ccccc1 [epalrestat, Epalrestat]	13	–	–	–
C/C1=C2/[N-][C@H]([C@H](CC(N)=O)[C@@]2(C)CCC(=O)NC[C@@H](C)OP(=O)([O-])O[C@H]2[C@@H](O)[C@@H](n3cnc4cc(C)c(C)cc43)O[C@@H]2CO)[C@]2(C)N=C(/C(C)=C3N=C(/C=C4N=C1[C@@H](CCC(N)=O)C\4(C)C)[C@@H](CCC(N)=O)[C@]\3(C)CC(N)=O)[C@@H](CCC(N)=O)[C@]2(C)CC(N)=O.[CH3-].[Co+3] [mecobalamin, Mecobalamin]	11	no significant promoting effect	5	no significant difference
